This is an account of results in publication PMC11548477, “Cathepsin B- and L-like Protease Activities Are Induced During Developmental Barley Leaf Senescence” (Plants, 2024).

Like-named read-outs stand apart in the source and are kept apart here. Where a SMILES comes first, the peptide text is derived from it. [ ]: non-standard residue; d: D form. The star is where a group is joined. Sta = CC(C)C[C@H](N)[C@@H](O)CC(=O)O; Isovaleryl = CC(C)CC(=O)*

The test system of assay [1] is cathepsin B- and L-like activity (Z-FR-AMC cleavage) in crude protein extract from barley leaves. Put plainly: Z-FR-AMC cleavage by crude protein extract from barley leaves. In kind it is biochemical, Hordeum vulgare. The protocol:
(§1) Frozen leaves were homogenized with a pre-chilled pestle and mortar in cold extraction buffer (0.1 M Tris–HCl, pH 7.4, 2 mM DTT) at a ratio of 167 mg of leaves:1 mL buffer. The homogenate was centrifugated at 20,000× g for 30 min at 4 °C. The supernatant, which was kept in an ice bath, was used as a sample for measurements of peptidase activity and protein content.
(§2) Fluorogenic substrates Z-FR-AMC to determine cathepsin B- and L-like activity, and Z-RR-AMC to determine cathepsin B-like activity, were used. These substrates show fluorescence when AMC is released as a consequence of the hydrolysis of the Arg-AMC bond. The emitted fluorescence was detected with a SpectraMax M2 microplate reader (Molecular Devices, San Jose, CA, USA) with λex = 360 nm and λem = 460 nm. Before use, the substrates were dissolved in DMSO at 10 mM and frozen at −20 °C. The measurements were made in 96-well black microplates (PerkinElmer Inc, Waltham, MA, USA), and each well contained a 100 μL final volume of an appropriate 0.1 M buffer with DTT (2 mM), extract (1.6 mg of fresh weight), and substrate (25 μM). The reaction was initiated by the addition of the substrate. The final concentration of DMSO in microplate wells was 1% in all the assays. The assays were conducted at room temperature, and relative fluorescence readings were recorded over a period of 10 min.
(§3) For the inhibition assays, an inhibitor (1 µL of stock solution in DMSO) at different concentrations was added to the reaction mixture. For all inhibitors tested, the concentration of inhibitor that caused 50% inhibition of the enzymatic reaction (IC50) was calculated by plotting % inhibition against the logarithm of inhibitor concentration (at least six points). The data are presented as the mean values of at least three independent experiments.

Assay [2] addresses aminopeptidase B and cathepsin H-like activity (R-AMC cleavage) in crude protein extract from barley leaves. Put plainly: R-AMC cleavage by crude protein extract from barley leaves. The format is biochemical, Hordeum vulgare. The note with it: for IC50 / inhibition of R-AMC cleavage: week-3 leaf extract; for concentration up to which no activity on R-AMC cleavage was seen: week-3 leaf samples.

The test system of assay [3] is cathepsin B-like activity (Z-RR-AMC cleavage) in crude protein extract from barley leaves. Put plainly: Z-RR-AMC cleavage by crude protein extract from barley leaves. The format is biochemical, Hordeum vulgare. The procedure: as §1, §2, §3
Assay [4] concerns aminopeptidase in alfalfa extracts. Further details: method as in PMID 10681066, PMID 21787929. The conditions noted are these: cited from earlier work.
Assay [5] relates to aminopeptidase in barley extracts. Further details: method as in PMID 10681066, PMID 21787929. The note with it: cited from earlier work.
The target of assay [6] is 38 kDa DCG-04-labeled cysteine protease band (cathepsin B-like protease(s)). In words: inhibition of DCG-04 binding (activity-based labeling), 38 kDa band. The conditions noted are these: 2.5 μM DCG-04, pH 5.5, 3 h, week-4 leaf extract; for IC50: densitometric analysis of blots. Further details: species or system Hordeum vulgare. The procedure:
(§4) The protein extracts of barley leaves obtained 4 weeks after flowering were preincubated with different concentrations of the inhibitors and proteins were labeled with 2.5 μM DCG-04 at pH 5.5 for 3 h. DMSO (solvent for inhibitors) was used as a control.
(§5) Densitometric analysis was based on 2 blots (mean values ± S.D.); data were normalized to the control value (DMSO solvent without inhibitor). The chemical structures of the inhibitors and calculated values of iLogP are shown on the right side of the figure.
(§6) Protein extracts from barley leaves (67 mg of fresh weight) were incubated with 2.5 μM DCG-04 in 0.1 M citrate buffer, pH 5.5, containing 2 mM DTT. When cysteine protease inhibitors E-64 and CA-074 were used, extracts were preincubated with the inhibitors for 10 min before addition of DCG-04. […] After the incubation, reactions were stopped and proteins were precipitated with inclusion of 100 mM NaCl, along with 80% acetone for rapid precipitation. The pellets were mixed with Laemmli loading buffer and boiled for 5 min [63]. Proteins were then separated on ready-made ExpressPlus^TM 4–12% acrylamide gels (GenScript Inc., Piscataway, NJ, USA) in Tris-MOPS SDS-PAGE Running Buffer (GenScript). After SDS-PAGE, proteins were transblotted onto nitrocellulose membrane (BioTrace™ NT nitrocellulose transfer membrane, Cytiva Life Sciences, Marlborough, MA, USA) and blocked for 1 h in 5% non-fat milk in 20 mM Tris-buffered saline (150 mM NaCl), pH 7.4, containing 0.1% Tween-20 (TBST). The membranes were washed 3 × 10 min in TBST and then incubated with streptavidin-HRP (dilution 1:2000 in 1% non-fat milk in TBST) for 1 h and washed again 3 × 10 min in TBST. The membranes were developed using the SuperSignal™ West Pico PLUS Chemiluminescent Substrate (Thermo Scientific, Rockford, IL, USA) and images were obtained using GeneTools by Syngene on a GeneSys imaging platform (Syngene, Frederick, MD, USA). Luminescent signal intensity was calculated by raw volume using GeneTools analysis Version 4.0 software from Syngene.

In assay [7] the test system is 43 kDa DCG-04-labeled cysteine protease band (cathepsin L-like protease or proteases). Put plainly: inhibition of DCG-04 binding (activity-based labeling), 43 kDa band. Further details: species or system Hordeum vulgare. The conditions noted are these: 2.5 μM DCG-04, pH 5.5, 3 h, week-4 leaf extract; for IC50: densitometric analysis of blots. The protocol: as §4, §5, §6

The test system of assay [8] is caseinolytic protease activity of extract obtained from week-4 barley leaves. Put plainly: caseinolytic (total) protease activity with casein-FITC in barley leaf extract. The format is biochemical, Hordeum vulgare. The note with it: casein-FITC substrate; extract of week-4 barley leaves; pH 7.4. The procedure:
as §1, §3

In a further assay the test system is aleurain. Further details: method as in PMID 16669011. The note with it: 10 μM leupeptin; cited from earlier work.
Setting [9] is: pH 7.4, week-4 leaf extract, 'No inhibition up to X' given as > X, read-out: IC50, Z-FR-AMC cleavage.
Where [10] appears, read: pH 7.4, 'No inhibition up to X' given as > X.
The mark [11] stands for this setting: pH 7.4, week-4 leaf extract, 'No inhibition up to X' given as > X, read-out: IC50, Z-RR-AMC cleavage.
Where [12] appears, read: pH 5.5, week-4 leaf extract, read-out: IC50, Z-FR-AMC cleavage.
The mark [13] stands for this setting: pH 7.4, week-4 leaf extract, read-out: IC50, Z-FR-AMC cleavage.
Where [14] appears, read: pH 5.5, 'No inhibition up to X' given as > X.
Where [15] appears, read: pH 5.5, week-4 leaf extract, read-out: IC50, Z-RR-AMC cleavage.
Where [16] appears, read: pH 7.4, week-4 leaf extract, read-out: IC50, Z-RR-AMC cleavage.

In the case of `c1cnc2c(c1)ccc1cccnc12` [1,10-Phenanthroline], the IC50 (commonly the concentration that inhibits the measured activity by half) is 8900 ± 300 µM in assay [1] (pH not given, week-4 leaf extract, read-out: IC50, Z-FR-AMC cleavage); 560 ± 110 µM in assay [2] (pH not given); 3100 ± 200 µM in [3] (pH not given, week-4 leaf extract, read-out: IC50, Z-RR-AMC cleavage).

On to `CC(C)C[C@H](NC(=O)[C@@H](O)[C@H](N)Cc1ccccc1)C(=O)O` [Bestatin], for which the IC50 in assay [1] (setting [9]) was greater than 1000 µM; in assay [2] (setting [10]), 580 ± 120 µM; in [3] (setting [11]) it was greater than 1000 µM. Also, the “concentration required for complete inhibition of aminopeptidase” value in [4] and in assay [5] was 0.1 mM in each case.

For the molecule `CCCNC(=O)[C@H]1O[C@@H]1C(=O)N[C@H](C(=O)N1CCC[C@H]1C(=O)O)[C@@H](C)CC` [CA-074, (2S)-1-[(2S,3S)-3-methyl-2-[[(2S,3S)-3-(propylcarbamoyl)oxirane-2-carbonyl]amino]pentanoyl]pyrrolidine-2-carboxylic acid], the concentration for half-maximal inhibition (IC50) in assay [6] was 1800 ± 600 nM; in [1] (setting [12]) it was 11.3 ± 2.2 µM; in assay [1] (setting [13]), 31 ± 5.6 µM; in [2] (setting [14]), greater than 200 µM; in [2] (setting [10]), greater than 200 µM; in assay [7], 26400 ± 2800 nM. Besides, the IC50 in assay [3] (setting [15]) turned out to be 22.7 ± 5.3 µM; in [3] (setting [16]), 80.7 ± 12.4 µM. Further, the “concentration up to which no activity on R-AMC cleavage was seen” value in assay [2] (pH not given) is given as greater than 0.2 mM. Further, the “concentration that totally blocks DCG-04 binding to the 43 kDa band” value in assay [7] is recorded as greater than 100 µM.

In the case of `O=C(NCc1ccccc1)C(Cc1ccccc1)NC(=O)C1OC1C(=O)NCCc1ccc(O)cc1` [CAA0225, (2S,3S)-oxirane-2,3-dicarboxylic acid 2-[((S)-1-benzylcarbamoyl-2-phenyl-ethyl)-amide] 3-{[2-(4-hydroxy-phenyl)-ethyl]-amide}], in assay [6], the “effect on DCG-04 binding to the 38 kDa band” value is recorded as “did not block binding”. Further, the IC50 in assay [1] (setting [12]) is 0.12 ± 0.0143 µM; in [1] (setting [13]) it was 0.0117 ± 0.0026 µM; in assay [2] (setting [14]) it was greater than 200 µM; in assay [2] (setting [10]), greater than 200 µM; in assay [7], 290 ± 110 nM; in [3] (setting [15]), 0.0906 ± 0.0122 µM. Also, the IC50 in assay [3] (setting [16]) came out at 0.0116 ± 0.0035 µM. The “concentration up to which no activity on R-AMC cleavage was seen” value in assay [2] (pH not given) is greater than 0.2 mM. Besides, the “concentration that totally blocks DCG-04 binding to the 43 kDa band” value in assay [7] is on record as greater than 6 µM.

Turning to `CCOC(=O)[C@H]1O[C@@H]1C(=O)N[C@@H](CC(C)C)C(=O)N[C@@H](Cc1ccc(O)cc1)C(=O)NCCCCCC(=O)N[C@@H](CCCCNC(=O)CCCC[C@@H]1SC[C@@H]2NC(=O)N[C@@H]21)C(N)=O` [DCG-04], the IC50 in assay [1] (preliminary experiments, barley leaf extracts, pH not stated, read-out: IC50, proteolytic activity with Z-FR-AMC) was determined as 1.8 ± 0.4 µM; in assay [3] (preliminary experiments, barley leaf extracts, pH not stated, read-out: IC50, proteolytic activity with Z-RR-AMC), 1.8 ± 0.4 µM.

As to `CC(C)C[C@H](NC(=O)[C@H]1O[C@@H]1C(=O)O)C(=O)NCCCCNC(=N)N` [E-64, trans-epoxysuccinyl-L-leucylamido-(4-guanidino) butane], the “concentration that totally blocks DCG-04 binding to the 38 kDa band” value in [6] amounted to 1 µM. Further, the IC50 in assay [6] came to 46.4 ± 9.1 nM; in assay [1] (setting [12]), 0.0123 ± 0.0028 µM; in [1] (setting [13]), 0.0245 ± 0.0042 µM; in assay [8], 64.4 ± 3.1 nM; in assay [7] it was 48 ± 12.2 nM; in assay [3] (setting [15]) it was 0.0062 ± 0.0017 µM. For the same molecule, the IC50 in assay [3] (setting [16]) came out at 0.0081 ± 0.0019 µM. The “inhibition of R-AMC cleavage” value in [2] (at 0.2–200 µM, pH 7.4) is on record as 20–25% inhibition at 0.2–200 µM; in assay [2] (at 1–200 µM, pH 5.5), 40–45% inhibition at 1–200 µM. Also, the “concentration that totally blocks DCG-04 binding to the 43 kDa band” value in [7] came out at 1 µM.

For the molecule `CC(=O)N[C@@H](CC(C)C)C(=O)N[C@@H](CC(C)C)C(=O)N[C@H](C=O)CCCNC(=N)N` [Leupeptin], in [1] (at 0.4 mM, pH 7.4, week-4 leaf extract), the “inhibition of Z-FR-AMC cleavage” value came to 30% inhibition at 0.4 mM. Further, the values for the IC50 in assay [2] (setting [10]) and in [3] (setting [11]) were greater than 400 µM and 610 ± 30 µM, respectively. Further, in the assay on aleurain, the inhibition of aleurain was ~ 75%.

Turning to `O=S(=O)(F)Cc1ccccc1` [PMSF, Phenylmethylsulfonyl fluoride], the IC50 in assay [1] (setting [9]) and in assay [2] (setting [10]) was greater than 2000 µM in each case. Also, the “inhibition of Z-RR-AMC cleavage” value in assay [3] (at 2 mM, pH 7.4, week-4 leaf extract) is on record as 30% inhibition at 2 mM.

For `CC(C)CC(=O)N[C@H](C(=O)N[C@H](C(=O)N[C@@H](CC(C)C)[C@@H](O)CC(=O)N[C@@H](C)C(=O)N[C@@H](CC(C)C)[C@@H](O)CC(=O)O)C(C)C)C(C)C` [Pepstatin A] (Isovaleryl-VV[Sta]A[Sta]-OH), the IC50 in assay [1] (setting [9]), in [2] (setting [10]) and in [3] (setting [11]) was greater than 200 µM in each case.
